# Source: patent US20260271931A1, “HERBICIDAL MIXTURES” (Bayer Aktiengesellschaft, priority 2023, published 2026)
# Where two headings read alike, the source gives them in different places.
# Key:
# Assay type in all cases: in vivo
# Avena fatua (AVEFA) = test: Post-emergence action against weeds, greenhouse pot test, visual rating: Avena fatua; details: for pest or weed control at […]: Avena fatua, 240 h, 10 DAT, read-out: Herbicidal effect [%] on AVEFA 10 DAT
# Bidens pilosa (BIDPI) = test: Post-emergence action against weeds, greenhouse pot test, visual rating: Bidens pilosa
# [1] = system: Brachiaria platyfylla (BRAPP); test: Post-emergence action against weeds, greenhouse pot test, visual rating: Brachiaria platyfylla; details: for pest or weed control at […] / pest or weed control at 0.4 g/ha: post-emergence
# Protocol: (§1) When the observed efficacies already exceed the formal sum total of the values of the tests with individual applications, they also exceed the expected value according to Colby, which is calculated using the formula below and is likewise regarded as an indication of synergism (cf. S. R. Colby; in Weeds 15 (1967) pp. 20 to 22):
# (§2) where: • A=efficacy of the active ingredient (A) in % at an application rate of a [g a.i./ha]; • B=efficacy of the active ingredient (B) in % at an application rate of b [g a.i./ha]; • E^C=expected value of the effect of the combination (A)+(B) in % at the combined application rate a+b [g a.i./ha].
# (§3) The observed values (E^A) from the experiments, given suitable low dosages, show an effect of the combinations exceeding the expected values according to Colby (E^C) (Δ).
# (§4) Seeds of mono- and dicotyledonous weeds were placed in sandy loam in pots, covered with soil and grown in a greenhouse under good growth conditions (temperature, air humidity, water supply). Two to three weeks after sowing, the test plants were treated at the two- to four-leaf stage with the compositions of the invention. The compositions of the invention, formulated as spray powders or as emulsion concentrates, were sprayed onto the green parts of the plant in various dosages with an application rate equivalent to […] of water. After the test plants had been kept in the greenhouse under optimum growth conditions for 3 weeks, the activity of the preparations was rated visually in comparison to untreated controls.
# (§5) 100% efficacy means complete control of the particular weed tested.
# (§6) 0% efficacy means zero control of the particular weed tested.
# (§7) Expected values according to Colby are reported under E.
# (§8) The exceedance of the expected value E is given as Δ (=synergistic effect).
# (§9) The rating period is reported in days after application (DAT).
# Centaurea cyanus (CENCY) [2] = test: Post-emergence action against weeds, greenhouse pot test, visual rating: Centaurea cyanus
# Protocol: as §1, §2, §3, §4, §5, §6, §7, §8, §9
# [3] = system: Echinochloa crus-galli (ECHCG); test: Post-emergence action against weeds, greenhouse pot test, visual rating: Echinochloa crus-galli
# Eleusine indica (ELEIN) = test: Post-emergence action against weeds, greenhouse pot test, visual rating: Eleusine indica; details: for pest or weed control at […] / pest or weed control at 0.4 g/ha: Eleusine indica, post-emergence
# Protocol: as §1, §2, §3, §4, §5, §6, §7, §8, §9
# Kochia scoparia (KCHSC) = test: Post-emergence action against weeds, greenhouse pot test, visual rating: Kochia scoparia; details: for pest or weed control at […] / pest or weed control at 0.4 g/ha: Bassia scoparia, post-emergence, 504 h, read-out: Herbicidal effect [%] on KCHSC 21 DAT
# Lolium rigidum (LOLRI) = test: Post-emergence action against weeds, greenhouse pot test, visual rating: Lolium rigidum; details: for pest or weed control at […] / pest or weed control at 0.4 g/ha: Lolium rigidum, 504 h, 21 DAT, read-out: Herbicidal effect [%] on LOLRI 21 DAT
# [4] = system: Pharbitis purpurea (PHBPU); test: Post-emergence action against weeds, greenhouse pot test, visual rating: Pharbitis purpurea
# Protocol: as §1, §2, §3, §4, §5, §6, §7, §8, §9
# [5] = system: Sorghum halepense (SORHA); test: Post-emergence action against weeds, greenhouse pot test, visual rating: Sorghum halepense
# Protocol: as §1, §2, §3, §4, §5, §6, §7, §8, §9
# Centaurea cyanus (CENCY) [6] = test: Post-emergence action against weeds, greenhouse pot test, visual rating: Centaurea cyanus; details: 240 h, read-out: Herbicidal effect [%] on CENCY 10 DAT
# [7] = system: Pharbitis purpurea (PHBPU); test: Post-emergence action against weeds, greenhouse pot test, visual rating: Pharbitis purpurea; details: 0.4 g a.i./ha
# [8] = 504 h, 0.4 g a.i./ha, read-out: Herbicidal effect [%] on ELEIN 21 DAT
compound,measurement,setting,value
"CCOC(=O)COc1ncccc1Oc1cc(-n2c(=O)cc(C(C)(F)F)n(C)c2=O)c(F)cc1Cl [Compound A1, ethyl [(3-{2-chloro-5-[4-(1,1-difluoroethyl)-3-methyl-2,6-dioxo-3,6-dihydropyrimidin-1(2H)-yl]-4-fluorophenoxy}pyridin-2-yl)oxy]acetate]",Herbicidal effect [%] on AVEFA 21 DAT,Avena fatua (AVEFA); 0.15 g a.i./ha,10%
same,Herbicidal effect [%] on AVEFA 21 DAT,Avena fatua (AVEFA); 0.45 g a.i./ha,20%
same,pest or weed control at […],Avena fatua (AVEFA); 0.15 g a.i./ha,5%
same,pest or weed control at […],Avena fatua (AVEFA); 0.45 g a.i./ha,20%
same,Herbicidal effect [%] on BIDPI 10 DAT,Bidens pilosa (BIDPI); 0.15 g a.i./ha,20%
same,Herbicidal effect [%] on BIDPI 21 DAT,Bidens pilosa (BIDPI); 0.15 g a.i./ha,10%
same,Herbicidal effect [%] on BIDPI 10 DAT,Bidens pilosa (BIDPI); 0.45 g a.i./ha,57.5%
same,Herbicidal effect [%] on BIDPI 21 DAT,Bidens pilosa (BIDPI); 0.45 g a.i./ha,30%
same,pest or weed control at […],"[1]; 240 h, 0.15 g a.i./ha, read-out: Herbicidal effect [%] on BRAPP 10 DAT",30%
same,pest or weed control at […],"[1]; 240 h, 0.45 g a.i./ha, read-out: Herbicidal effect [%] on BRAPP 10 DAT",45%
same,pest or weed control at […],"[1]; 504 h, 0.15 g a.i./ha, read-out: Herbicidal effect [%] on BRAPP 21 DAT",0%
same,pest or weed control at […],"[1]; 504 h, 0.45 g a.i./ha, read-out: Herbicidal effect [%] on BRAPP 21 DAT",0%
same,Herbicidal effect [%] on CENCY 21 DAT,Centaurea cyanus (CENCY) [2]; 0.15 g a.i./ha,15%
same,Herbicidal effect [%] on CENCY 21 DAT,Centaurea cyanus (CENCY) [2]; 0.45 g a.i./ha,20%
same,Herbicidal effect [%] on ECHCG 10 DAT,[3]; 0.15 g a.i./ha,10%
same,Herbicidal effect [%] on ECHCG 21 DAT,[3]; 0.15 g a.i./ha,10%
same,Herbicidal effect [%] on ECHCG 10 DAT,[3]; 0.45 g a.i./ha,25%
same,Herbicidal effect [%] on ECHCG 21 DAT,[3]; 0.45 g a.i./ha,20%
same,pest or weed control at […],"Eleusine indica (ELEIN); 240 h, 0.15 g a.i./ha, read-out: Herbicidal effect [%] on ELEIN 10 DAT",10%
same,pest or weed control at […],"Eleusine indica (ELEIN); 240 h, 0.45 g a.i./ha, read-out: Herbicidal effect [%] on ELEIN 10 DAT",35%
same,pest or weed control at […],"Eleusine indica (ELEIN); 504 h, 0.15 g a.i./ha, read-out: Herbicidal effect [%] on ELEIN 21 DAT",5%
same,pest or weed control at […],"Eleusine indica (ELEIN); 504 h, 0.45 g a.i./ha, read-out: Herbicidal effect [%] on ELEIN 21 DAT",5%
same,Herbicidal effect [%] on KCHSC 10 DAT,Kochia scoparia (KCHSC); 0.15 g a.i./ha,5%
same,Herbicidal effect [%] on KCHSC 10 DAT,Kochia scoparia (KCHSC); 0.45 g a.i./ha,25%
same,pest or weed control at […],Kochia scoparia (KCHSC); 0.15 g a.i./ha,0%
same,pest or weed control at […],Kochia scoparia (KCHSC); 0.45 g a.i./ha,5%
same,Herbicidal effect [%] on LOLRI 10 DAT,Lolium rigidum (LOLRI); 0.15 g a.i./ha,10%
same,Herbicidal effect [%] on LOLRI 10 DAT,Lolium rigidum (LOLRI); 0.45 g a.i./ha,15%
same,pest or weed control at […],Lolium rigidum (LOLRI); 0.15 g a.i./ha,5%
same,pest or weed control at […],Lolium rigidum (LOLRI); 0.45 g a.i./ha,5%
same,Herbicidal effect [%] on PHBPU 10 DAT,[4]; 0.15 g a.i./ha,20%
same,Herbicidal effect [%] on PHBPU 21 DAT,[4]; 0.15 g a.i./ha,20%
same,Herbicidal effect [%] on PHBPU 10 DAT,[4]; 0.45 g a.i./ha,77.5%
same,Herbicidal effect [%] on PHBPU 21 DAT,[4]; 0.45 g a.i./ha,50%
same,Herbicidal effect [%] on SORHA 10 DAT,[5]; 0.15 g a.i./ha,47.5%
same,Herbicidal effect [%] on SORHA 21 DAT,[5]; 0.15 g a.i./ha,49%
same,Herbicidal effect [%] on SORHA 10 DAT,[5]; 0.45 g a.i./ha,45%
same,Herbicidal effect [%] on SORHA 21 DAT,[5]; 0.45 g a.i./ha,40%
same,pest or weed control at […],Centaurea cyanus (CENCY) [6]; 0.15 g a.i./ha,15%
same,pest or weed control at […],Centaurea cyanus (CENCY) [6]; 0.45 g a.i./ha,40%
"C#CCN1C(=O)COc2cc(F)c(N3C(=O)C4=C(CCCC4)C3=O)cc21 [Flumioxazin, flumioxazin]",pest or weed control at 0.4 g/ha,"[1]; 240 h, 0.4 g a.i./ha, read-out: Herbicidal effect [%] on BRAPP 10 DAT",30%
same,pest or weed control at 0.4 g/ha,"[1]; 504 h, 0.4 g a.i./ha, read-out: Herbicidal effect [%] on BRAPP 21 DAT",10%
same,pest or weed control at 0.4 g/ha,"Eleusine indica (ELEIN); 240 h, 0.4 g a.i./ha, read-out: Herbicidal effect [%] on ELEIN 10 DAT",30%
same,pest or weed control at 0.4 g/ha,Eleusine indica (ELEIN); [8],0%
same,Herbicidal effect [%] on KCHSC 10 DAT,Kochia scoparia (KCHSC); 0.4 g a.i./ha,30%
same,pest or weed control at 0.4 g/ha,Kochia scoparia (KCHSC); 0.4 g a.i./ha,10%
same,pest or weed control at 0.4 g/ha,Lolium rigidum (LOLRI); 0.4 g a.i./ha,0%
same,Herbicidal effect [%] on PHBPU 21 DAT,[4]; 0.4 g a.i./ha,30%
same,Herbicidal effect [%] on PHBPU 10 DAT,[7],50%
"C#CCN1C(=O)C(F)(F)Oc2cc(F)c(-n3c(=O)n(C)c(=S)n(C)c3=O)cc21 [Trifludimoxazin, trifludimoxazin]",Herbicidal effect [%] on BIDPI 10 DAT,Bidens pilosa (BIDPI); 0.4 g a.i./ha,60%
same,Herbicidal effect [%] on BIDPI 21 DAT,Bidens pilosa (BIDPI); 0.4 g a.i./ha,60%
same,Herbicidal effect [%] on BRAPP 10 DAT,[1]; 0.4 g a.i./ha,40%
same,Herbicidal effect [%] on BRAPP 21 DAT,[1]; 0.4 g a.i./ha,0%
same,Herbicidal effect [%] on CENCY 10 DAT,Centaurea cyanus (CENCY) [2]; 0.4 g a.i./ha,30%
same,Herbicidal effect [%] on ELEIN 10 DAT,Eleusine indica (ELEIN); 0.4 g a.i./ha,70%
same,Herbicidal effect [%] on ELEIN 21 DAT,Eleusine indica (ELEIN); 0.4 g a.i./ha,20%
same,Herbicidal effect [%] on KCHSC 10 DAT,Kochia scoparia (KCHSC); 0.4 g a.i./ha,85%
same,Herbicidal effect [%] on KCHSC 21 DAT,Kochia scoparia (KCHSC); 0.4 g a.i./ha,60%
same,Herbicidal effect [%] on LOLRI 10 DAT,Lolium rigidum (LOLRI); 0.4 g a.i./ha,20%
same,Herbicidal effect [%] on PHBPU 21 DAT,[4]; 0.4 g a.i./ha,40%
same,Herbicidal effect [%] on PHBPU 10 DAT,[7],80%
"C=C[C@]1(C(=O)N[C@H]2CO[C@@H](C(=O)OC)C2)CC(c2cc(F)cc(F)c2)=NO1 (relative stereo) [Icafolin-methyl, methyl rel-(2R,4R)-4-[[(5S)-3-(3,5-difluorophenyl)-5-vinyl-4H-isoxazole-5-carbonyl]amino]tetrahydrofuran-2-carboxylate]",Herbicidal effect [%] on AVEFA 21 DAT,Avena fatua (AVEFA); 0.4 g a.i./ha,10%
same,pest or weed control at 0.4 g/ha,Eleusine indica (ELEIN); [8],0%
same,pest or weed control at 0.4 g/ha,Kochia scoparia (KCHSC); 0.4 g a.i./ha,0%
same,Herbicidal effect [%] on LOLRI 10 DAT,Lolium rigidum (LOLRI); 0.4 g a.i./ha,10%
same,pest or weed control at 0.4 g/ha,Lolium rigidum (LOLRI); 0.4 g a.i./ha,0%
same,pest or weed control at 0.4 g/ha,Centaurea cyanus (CENCY) [6]; 0.4 g a.i./ha,0%
same,Herbicidal effect [%] on PHBPU 10 DAT,[7],0%
